Starred links: 1 amine or outer side, 2 acyl side, 3 side chain; linkers in the order of their positions; H or OH if unused. Non-standard residues stand in square brackets, D forms with d. Residues, ends and D or L forms follow the SMILES beside them. Groups on a side chain read outwards from the residue. *: point of attachment. C20 diacid = O=C(O)CCCCCCCCCCCCCCCCCCC(=O)*; αMePhe(2-F) = C[C@](N)(Cc1ccccc1F)C(=O)O; γGlu = O=C(O)[C@H](CCC(=O)[*:2])N[*:1]; αMeF = C[C@](N)(Cc1ccccc1)C(=O)O; αMeL = CC(C)C[C@](C)(N)C(=O)O; AEEA = NCCOCCOCC(=O)O; Ac3c = NC1(C(=O)O)CC1; Aib = CC(C)(N)C(=O)O
Assays:
[1] = biological target: T1, Human GIP R (Homo sapiens, UniProt P48546); test: cAMP (HTRF) activity in CHO cells stably overexpressing GIP receptor; format: cell-based; conditions: for Human GIP R Rel. A (Relative Activity): EC50 of human GIP / EC50 of compound; for EC50: stable transfected cell cAMP activity, at least 3 independent tests
T1 construct: expressed in transfected cells; host or cells: CHO
T1 sequence (P48546 22-466): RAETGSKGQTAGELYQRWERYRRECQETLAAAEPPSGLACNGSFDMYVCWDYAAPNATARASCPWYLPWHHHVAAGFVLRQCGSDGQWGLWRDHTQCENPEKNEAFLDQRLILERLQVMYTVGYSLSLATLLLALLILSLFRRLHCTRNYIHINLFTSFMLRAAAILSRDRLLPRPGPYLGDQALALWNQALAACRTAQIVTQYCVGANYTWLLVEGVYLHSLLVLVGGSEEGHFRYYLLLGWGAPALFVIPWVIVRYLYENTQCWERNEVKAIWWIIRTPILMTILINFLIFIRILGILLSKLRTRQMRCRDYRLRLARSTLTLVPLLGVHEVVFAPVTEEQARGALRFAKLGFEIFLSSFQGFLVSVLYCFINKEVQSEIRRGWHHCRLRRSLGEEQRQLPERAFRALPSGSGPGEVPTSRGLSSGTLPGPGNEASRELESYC
Description: (§1) By measuring the cAMP signal response levels of the aforementioned cells, the agonistic activity of individual compound towards the corresponding receptor was determined. The intracellular cAMP content was measured using reagent kit available from Cisbio Corp. based on HTRF (homogeneous time-resolved fluorescence) technology.
(§2) The cell fluid was transferred to 10 ml of HBSS for resuspension, and centrifuged at 1000 rpm for 5 minutes at room temperature.
(§3) 10 μL cell suspension was added to each well in the 384 well plate. […] Using the ECHO liquid transfer system, 100 nL of the prepared compound solution was added to the corresponding cell suspensions in the 384 well plate, rotated and shaken at 1000 rpm for 1 minute to mix evenly, and then incubated at room temperature for 60 minutes. 10 μL of detection reagent was added to each well after drug incubation was completed, and incubation was performed in the kit at room temperature for 60 minutes. […] GraphPad Prism 5 plotting software was used to create compound concentration response curves and EC50 (nM) values was calculated.

[2] = biological target: T2, Human GCG R (Homo sapiens, UniProt P47871); test: cAMP (HTRF) activity in HEK-293 cells stably overexpressing human GCG receptor; format: cell-based; conditions: EC50 of human GCG / EC50 of compound
T2 construct: expressed in transfected cells; host or cells: HEK-293
T2 sequence (P47871 26-477): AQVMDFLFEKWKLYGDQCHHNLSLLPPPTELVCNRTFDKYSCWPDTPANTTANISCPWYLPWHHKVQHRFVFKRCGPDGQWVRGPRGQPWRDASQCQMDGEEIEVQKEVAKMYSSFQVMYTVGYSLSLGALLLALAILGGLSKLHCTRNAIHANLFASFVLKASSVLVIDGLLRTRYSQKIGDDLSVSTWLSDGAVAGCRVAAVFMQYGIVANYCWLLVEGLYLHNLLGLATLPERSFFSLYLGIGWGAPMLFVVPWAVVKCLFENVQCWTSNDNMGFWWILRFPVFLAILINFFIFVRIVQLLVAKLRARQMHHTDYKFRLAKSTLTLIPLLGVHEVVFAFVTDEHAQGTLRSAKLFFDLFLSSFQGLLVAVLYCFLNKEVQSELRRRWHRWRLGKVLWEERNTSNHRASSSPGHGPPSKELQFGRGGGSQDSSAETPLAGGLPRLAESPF
Description: as §1, §2, §3

[3] = tested on: RIN-m5F cells; format: cell-based, rat; conditions: for Rel. A (Relative Activity) on RIN-m5F: relative to GLP-1(7-37)
Description: This experiment measured the cAMP level produced by the compound on RIN-mF cells.
Frozen […] cells were placed in a 37° C. constant temperature water bath for rapid thawing and recovery. The cell solution was transferred to 10 ml of HBSS for resuspension, and centrifuged at 1000 rpm for 5 minutes at room temperature.
(§4) 10 μL cell suspension was added to each well in the 384 well plate. […] Using the ECHO liquid transfer system, 100 nL of the prepared compound solution was added to the corresponding cell suspensions in the 384 well plate, rotated and shaken at 1000 rpm for 1 minute to mix evenly, and then incubated at room temperature for 60 minutes. 10 μL of detection reagent was added to each wells after drug incubation was completed, and incubation was performed for 60 minutes.

[4] = tested on: 3T3-L1 adipocytes; conditions: for Rel. A (Relative Activity) on 3T3-L1 adipocyte: relative to GIP
Description: Mouse 3T3-L1 precursor adipocytes can be induced to differentiate into mature adipocytes. […] After the cells became full and contacted with each other, DMEM differentiation medium containing 20% FBS, 0.5 mM IBMX, 0.4 ug/mL dexamethasone, and 5 ug/mL insulin was used to induce differentiation of 3T3-L1 adipocyte. After 5 days of induction and cultivation, DMEM medium containing […], 4 ug/ml insulin, and 10 uM rosiglitazone was used to continue induction and cultivation for 3 days. Then, DMEM medium containing 10% FBS was used to continue cultivation for 2-3 days to induce mature 3T3-L1 adipocytes.
The cAMP level produced by the compound on 3T3-L1 adipocytes was determined in this experiment. The tested compound solution was diluted step by step according to a concentration gradient of 3 times, to obtain a total of 10 series of concentration solutions. The solutions were added to induced mature 3T3-L1 adipocytes and incubated at room temperature for 60 minutes. 10 μL detection reagent in the kit was added to each well after drug incubation, and incubated at room temperature for another 60 minutes. […] GraphPad Prism 5 plotting software was used to create compound concentration-effect curves and calculation was performed.

[5] = tested on: human primary liver cells; format: cell-based; conditions: for Rel. A (Relative Activity) on human primary liver cells: relative to GCG
Description: The cAMP levels produced by compounds on human primary liver cells were determined in this experiment. Human primary liver cells were purchased from Lonza (cell product number HUCPG).
Frozen human primary liver cells were placed in a 37° C. constant temperature water bath for rapid thawing and recovery. The cell solution was transferred to 10 ml of HBSS for resuspension, and centrifuged at 1000 rpm for 5 minutes at room temperature.
as §4, with “well” for “wells”

[6] = biological target: Human GLP-1R (Homo sapiens, UniProt P43220); test: cAMP (HTRF) activity in HEK-293 cells stably overexpressing human GLP-1 receptor; format: cell-based; parameters: expressed in transfected cells; host or cells: HEK-293; conditions: for Human GLP-1R Rel. A (Relative Activity): EC50 of human GLP-1 (7-37) / EC50 of compound; for EC50: stable transfected cell cAMP activity, at least 3 independent tests
Human GLP-1R, sequence (P43220 24-463): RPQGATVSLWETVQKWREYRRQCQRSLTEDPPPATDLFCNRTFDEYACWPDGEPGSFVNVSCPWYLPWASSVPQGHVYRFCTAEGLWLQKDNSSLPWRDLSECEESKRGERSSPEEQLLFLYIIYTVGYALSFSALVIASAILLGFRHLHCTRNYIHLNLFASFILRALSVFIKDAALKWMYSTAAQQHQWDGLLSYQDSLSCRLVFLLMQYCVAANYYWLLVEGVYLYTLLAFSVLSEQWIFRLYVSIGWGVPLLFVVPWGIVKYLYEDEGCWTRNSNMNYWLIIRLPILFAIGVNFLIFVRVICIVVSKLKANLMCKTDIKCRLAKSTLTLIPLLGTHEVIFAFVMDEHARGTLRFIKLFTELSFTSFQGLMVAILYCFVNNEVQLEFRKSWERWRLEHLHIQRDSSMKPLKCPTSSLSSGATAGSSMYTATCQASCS
Description: as §1, §2, §3

Human GIP R Rel. A (Relative Activity) [1] | EC50 [1] | Human GCG R Rel. A (Relative Activity) [2] | EC50 [3] | EC50 [5] | Human GLP-1R Rel. A (Relative Activity) [6] | EC50 [6] | SMILES | Rel. A (Relative Activity) on RIN-m5F [3] | EC50 [4] | Rel. A (Relative Activity) on 3T3-L1 adipocyte [4] | Rel. A (Relative Activity) on human primary liver cells [5]
3620.00% | 0.005 nM | 150.00% | 0.879 nM | 0.537 nM | 191.30% | 0.023 nM | CC[C@H](C)[C@H](NC(=O)[C@H](Cc1ccccc1)NC(=O)[C@H](C)NC(=O)C(C)(C)NC(=O)[C@H](CCC(N)=O)NC(=O)[C@H](C)NC(=O)[C@H](CCCCNC(=O)COCCOCCNC(=O)COCCOCCNC(=O)CC[C@H](NC(=O)CCCCCCCCCCCCCCCCCCC(=O)O)C(=O)O)NC(=O)[C@H](CCCCN)NC(=O)[C@H](CC(=O)O)NC(=O)[C@H](CC(C)C)NC(=O)[C@](C)(CC(C)C)NC(=O)[C@@H](NC(=O)[C@H](CO)NC(=O)[C@H](Cc1ccc(O)cc1)NC(=O)[C@H](CC(=O)O)NC(=O)[C@H](CO)NC(=O)[C@@H](NC(=O)[C@](C)(Cc1ccccc1F)NC(=O)[C@@H](NC(=O)CNC(=O)[C@H](CCC(N)=O)NC(=O)C(C)(C)NC(=O)[C@@H](N)Cc1ccc(O)cc1)[C@@H](C)O)[C@@H](C)O)[C@@H](C)CC)C(=O)N[C@@H](CCC(=O)O)C(=O)N[C@@H](Cc1ccc(O)cc1)C(=O)N[C@@H](CC(C)C)C(=O)N[C@@H](CC(C)C)C(=O)N[C@@H](CCC(=O)O)C(=O)N[C@H](C(=O)NCC(=O)N1CCC[C@H]1C(=O)N[C@@H](CO)C(=O)N[C@@H](CO)C(=O)NCC(=O)N[C@@H](CCC(N)=O)C(=O)N1CCC[C@H]1C(=O)N1CCC[C@H]1C(=O)NC1(C(=O)N[C@@H](CO)C(N)=O)CC1)[C@@H](C)O [Compound 34] (H-Y[Aib]QGT[αMePhe(2-F)]TSDYSI[αMeL]LDKK([AEEA-AEEA-γGlu-C20 diacid])AQ[Aib]AFIEYLLETGPSSGQPP[Ac3c]S-NH2; N-terminus assumed) | 117.41% | 2.3 nM | 165.52% | 724.58%
2262.50% | 0.008 nM | 36.77% | 0.717 nM | 4.19 nM | 231.58% |  | CC[C@H](C)[C@H](NC(=O)[C@H](Cc1ccccc1)NC(=O)[C@H](C)NC(=O)C(C)(C)NC(=O)[C@H](CCC(N)=O)NC(=O)[C@H](C)NC(=O)[C@H](CCCCNC(=O)COCCOCCNC(=O)COCCOCCNC(=O)CC[C@H](NC(=O)CCCCCCCCCCCCCCCCCCC(=O)O)C(=O)O)NC(=O)[C@H](CCCCN)NC(=O)[C@H](CC(=O)O)NC(=O)[C@H](CC(C)C)NC(=O)[C@](C)(CC(C)C)NC(=O)[C@@H](NC(=O)[C@H](CO)NC(=O)[C@H](Cc1ccc(O)cc1)NC(=O)[C@H](CC(=O)O)NC(=O)[C@H](CO)NC(=O)[C@@H](NC(=O)[C@](C)(Cc1ccccc1)NC(=O)[C@@H](NC(=O)CNC(=O)[C@H](CCC(N)=O)NC(=O)C(C)(C)NC(=O)[C@@H](N)Cc1ccc(O)cc1)[C@@H](C)O)[C@@H](C)O)[C@@H](C)CC)C(=O)N[C@@H](CCC(=O)O)C(=O)N[C@@H](Cc1ccccc1)C(=O)N[C@@H](CC(C)C)C(=O)N[C@@H](CC(C)C)C(=O)N[C@@H](CCC(=O)O)C(=O)N[C@@H](CO)C(=O)N[C@@H](Cc1c[nH]cn1)C(=O)N1CCC[C@H]1C(=O)N[C@@H](CO)C(=O)N[C@@H](CO)C(=O)NC(C)(C)C(=O)N[C@@H](Cc1c[nH]cn1)C(=O)N1CCC[C@H]1C(=O)N1CCC[C@H]1C(=O)NC1(C(=O)N[C@@H](CO)C(N)=O)CC1 [Compound 33] (H-Y[Aib]QGT[αMeF]TSDYSI[αMeL]LDKK([AEEA-AEEA-γGlu-C20 diacid])AQ[Aib]AFIEFLLESHPSS[Aib]HPP[Ac3c]S-NH2; N-terminus assumed) | 143.93% | 3.3 nM | 115.21% | 92.93%
441.46% |  | 44.88% | 0.26 nM | 0.463 nM | 440.00% | 0.01 nM | CC[C@H](C)[C@H](NC(=O)[C@H](Cc1ccccc1)NC(=O)[C@H](C)NC(=O)C(C)(C)NC(=O)[C@H](CCC(N)=O)NC(=O)[C@H](C)NC(=O)[C@H](CCCCNC(=O)COCCOCCNC(=O)COCCOCCNC(=O)CC[C@H](NC(=O)CCCCCCCCCCCCCCCCCCC(=O)O)C(=O)O)NC(=O)[C@H](CCCCN)NC(=O)[C@H](CC(=O)O)NC(=O)[C@H](CC(C)C)NC(=O)[C@](C)(CC(C)C)NC(=O)[C@@H](NC(=O)[C@H](CO)NC(=O)[C@H](Cc1ccc(O)cc1)NC(=O)[C@H](CC(=O)O)NC(=O)[C@H](CO)NC(=O)[C@@H](NC(=O)[C@](C)(Cc1ccccc1F)NC(=O)[C@@H](NC(=O)CNC(=O)[C@H](CCC(N)=O)NC(=O)C(C)(C)NC(=O)[C@@H](N)Cc1ccc(O)cc1)[C@@H](C)O)[C@@H](C)O)[C@@H](C)CC)C(=O)N[C@@H](CCC(=O)O)C(=O)N[C@@H](Cc1ccc(O)cc1)C(=O)N[C@@H](CC(C)C)C(=O)N[C@@H](CC(C)C)C(=O)N[C@@H](CCC(=O)O)C(=O)N[C@@H](CO)C(=O)N[C@@H](Cc1c[nH]cn1)C(=O)N1CCC[C@H]1C(=O)N[C@@H](CO)C(=O)N[C@@H](CO)C(=O)NC(C)(C)C(=O)N[C@@H](Cc1c[nH]cn1)C(=O)N1CCC[C@H]1C(=O)N1CCC[C@H]1C(=O)NC1(C(=O)N[C@@H](CO)C(N)=O)CC1 [Compound 43] (H-Y[Aib]QGT[αMePhe(2-F)]TSDYSI[αMeL]LDKK([AEEA-AEEA-γGlu-C20 diacid])AQ[Aib]AFIEYLLESHPSS[Aib]HPP[Ac3c]S-NH2) | 396.92% | 1.36 nM | 279.97% | 840.39%
